Assay results: US11986471B2, “Compounds and methods of use” (Tango Therapeutics, Inc., priority 2018, dated 2024)

Assays:
PRMT5 [1] = molecular target: T1, PRMT5 (Homo sapiens, UniProt O14744); experiment: PRMT5 IC50 assay in the presence of SAM as cofactor; format: biochemical
T1 construct: purchased Viva (custom protein)
Summary of the method: (§1)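 Human PRMT5 inhibition, IC50 in μM; cofactor varied (SAM / MTA / none).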

PRMT5 [2] = molecular target: T1, PRMT5; experiment: PRMT5 IC50 assay with no cofactor; format: biochemical
Summary of the method: as §1

PRMT5 [3] = molecular target: T1, PRMT5; experiment: PRMT5 IC50 assay in the presence of MTA as cofactor; format: biochemical; details: for IC50: PRMT5, MTA as cofactor
Summary of the method: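 Three cofactor conditions tested for PRMT5 inhibition: none, MTA and SAM, each giving an IC50. For conversion to Ki, the MTA-condition IC50 is divided by 13.5 and the SAM-condition IC50 by 1.5, and the two Ki values are expressed as a SAM/MTA ratio.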

HAP1 MTAP-intact = experiment: SDMA in-cell western assay, HAP1 MTAP-intact cell line; format: cell-based; details: Homo sapiens
Summary of the method: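 HAP1 isogenic pair: endogenous MTAP vs MTAP-null. Readout SDMA by in-cell western; IC50 per line. Ratio ≥3 fold = MTAP-selective.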

HAP1 MTAP-deleted = experiment: SDMA in-cell western assay, HAP1 MTAP-deleted cell line; format: cell-based; details: for IC50: Homo sapiens, HAP1 MTAP-deleted cell line; for MTAP Intact/Deleted Ratio: IC50 ratio HAP1 MTAP-intact / HAP1 MTAP-deleted
Summary of the method: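 IC50 from SDMA in-cell western; HAP1 line lacking MTAP (null), paired isogenically with MTAP-intact HAP1 expressing endogenous MTAP.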

[4] = ratio between the Ki in the presence of SAM and the Ki in the presence of MTA
[5] = ratio between Ki in the presence of SAM and Ki in the presence of MTA

T1 sequence (O14744 whole entry): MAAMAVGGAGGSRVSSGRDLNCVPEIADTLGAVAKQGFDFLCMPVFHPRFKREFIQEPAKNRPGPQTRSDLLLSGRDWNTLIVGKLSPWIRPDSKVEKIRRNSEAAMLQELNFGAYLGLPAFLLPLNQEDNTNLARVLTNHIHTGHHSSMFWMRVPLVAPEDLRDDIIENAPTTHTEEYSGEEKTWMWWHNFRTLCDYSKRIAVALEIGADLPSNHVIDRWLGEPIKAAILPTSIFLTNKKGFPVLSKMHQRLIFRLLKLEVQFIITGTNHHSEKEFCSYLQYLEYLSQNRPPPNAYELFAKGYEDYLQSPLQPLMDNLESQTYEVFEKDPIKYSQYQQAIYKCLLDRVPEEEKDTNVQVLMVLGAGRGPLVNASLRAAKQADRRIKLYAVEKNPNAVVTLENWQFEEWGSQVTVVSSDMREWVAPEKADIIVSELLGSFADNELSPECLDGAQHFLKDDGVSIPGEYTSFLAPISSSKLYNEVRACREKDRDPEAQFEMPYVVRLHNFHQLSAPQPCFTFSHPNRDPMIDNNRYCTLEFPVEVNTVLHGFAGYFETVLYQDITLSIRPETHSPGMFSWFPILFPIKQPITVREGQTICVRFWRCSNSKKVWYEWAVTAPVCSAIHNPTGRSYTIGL
T1 sequence (Q9BQA1 whole entry partner): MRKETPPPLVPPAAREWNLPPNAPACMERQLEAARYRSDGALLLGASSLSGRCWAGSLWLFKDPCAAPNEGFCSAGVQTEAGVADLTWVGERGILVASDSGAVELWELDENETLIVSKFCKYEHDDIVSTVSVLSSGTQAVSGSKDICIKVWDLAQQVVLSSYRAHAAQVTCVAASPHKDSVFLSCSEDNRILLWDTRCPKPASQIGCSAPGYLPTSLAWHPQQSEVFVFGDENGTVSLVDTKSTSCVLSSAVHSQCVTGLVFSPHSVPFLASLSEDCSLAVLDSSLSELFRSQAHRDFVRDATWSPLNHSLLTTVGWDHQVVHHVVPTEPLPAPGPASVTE

Compound	IC50 (PRMT5 [1]) [nM]	IC50 (PRMT5 [2]) [nM]	IC50 (PRMT5 [3]) [nM]	SAM/MTA Ratio (PRMT5 [3]; [4])	IC50 (HAP1 MTAP-intact) [nM]	IC50 (HAP1 MTAP-deleted) [nM]	MTAP Intact/Deleted Ratio (HAP1 MTAP-deleted)	IC50 (PRMT5 [2]; read-out: No Co-factor IC50) [nM]	SAM/MTA Ratio (PRMT5 [3]; [5])
CCC(=O)N1CC(Nc2cc(C(=O)NC[C@H](O)CN3CCc4cc(OCc5cnco5)ccc4C3)ccn2)C1 [Compound 469, N-[(2S)-2-hydroxy-3-[6-(oxazol-5-ylmethoxy)-3,4-dihydro-1H-isoquinolin-2-yl]propyl]-2-[(1-propanoylazetidin-3-yl)amino]pyridine-4-carboxamide]	50 to 500	500 to 5000	50 to 500	A (a Ki ratio greater than or equal to 10 fold between the Ki in the presence of SAM and the Ki in the presence of MTA)	1000 to 10000	1000 to 10000	C* (an IC50 ratio of less than 3 fold between the IC50 in the HAP1 MTAP-intact cell line and the HAP1 MTAP-deleted cell line)		
O=C(NC[C@H](O)CN1CCc2c(ccc(OCc3cnco3)c2Cl)C1)c1ccnc(NC2CC3(C2)CC3(F)F)c1 (stereo partly shown) [Compound 441]	50 to 500	500 to 5000	50 to 500	A (a Ki ratio greater than or equal to 10 fold between the Ki in the presence of SAM and the Ki in the presence of MTA)	≥ 10000	1000 to 10000	C* (an IC50 ratio of less than 3 fold between the IC50 in the HAP1 MTAP-intact cell line and the HAP1 MTAP-deleted cell line)		
Cc1ncoc1COc1ccc2c(c1C)CCN(C[C@@H](O)CNC(=O)c1ccc3c(c1)CCN(C(=O)c1ccc(Br)cc1)C3)C2 [Compound 530]	50 to 500	≥ 5000	50 to 500	A (a Ki ratio greater than or equal to 10 fold between the Ki in the presence of SAM and the Ki in the presence of MTA)	≥ 10000	≥ 10000	C* (an IC50 ratio of less than 3 fold between the IC50 in the HAP1 MTAP-intact cell line and the HAP1 MTAP-deleted cell line)		
Cc1ncoc1COc1ccc2c(c1Cl)CCN(C[C@@H](O)CNC(=O)c1cc(NC3CCCCC3)ncn1)C2 [Compound 501, N-[(2S)-3-[5-chloro-6-[(4-methyl-1,3-oxazol-5-yl)methoxy]-1,2,3,4-tetrahydroisoquinolin-2-yl]-2-hydroxypropyl]-6-(cyclohexylamino)pyrimidine-4-carboxamide]	50 to 500	≥ 5000	50 to 500	A (a Ki ratio greater than or equal to 10 fold between the Ki in the presence of SAM and the Ki in the presence of MTA)	≥ 10000	≥ 10000	C* (an IC50 ratio of less than 3 fold between the IC50 in the HAP1 MTAP-intact cell line and the HAP1 MTAP-deleted cell line)		
CC(=O)N1CC(Nc2cc(C(=O)NC[C@H](O)CN3CCc4cc(OCc5ocnc5C)ccc4C3)cc(N3CCCCC3)n2)C1 [Compound 634]	50 to 500		< 50		1000 to 10000	1000 to 10000	B* (an IC50 ratio greater than or equal to 3 fold but lower than 10 fold between the IC50 in the HAP1 MTAP-intact cell line and the HAP1 MTAP-deleted cell line)	50 to 500	A (a Ki ratio greater than or equal to 10 fold between the Ki in the presence of SAM and the Ki in the presence of MTA)
Cc1ncoc1COc1ccc2c(c1C)CCN(C[C@@H](O)CNC(=O)c1ccc(OC3CCN(Cc4ccncc4)CC3)cc1)C2 [Compound 440, N-[(2S)-2-hydroxy-3-{5-methyl-6-[(4-methyl-1,3-oxazol-5-yl)methoxy]-1,2,3,4-tetrahydroisoquinolin-2-yl}propyl]-4-({1-[(pyridin-4-yl)methyl]piperidin-4-yl}oxy)benzamide]	50 to 500	500 to 5000	50 to 500	A (a Ki ratio greater than or equal to 10 fold between the Ki in the presence of SAM and the Ki in the presence of MTA)	≥ 10000	1000 to 10000	B* (an IC50 ratio greater than or equal to 3 fold but lower than 10 fold between the IC50 in the HAP1 MTAP-intact cell line and the HAP1 MTAP-deleted cell line)		
Cc1ncoc1COc1ccc2c(c1Br)CCN(C[C@@H](O)CNC(=O)c1cccc(NC3CCC3)c1)C2 [Compound 354, (S)—N-(3-(5-bromo-6-((4-methyloxazol-5-yl)methoxy)-3,4-dihydroisoquinolin-2(1H)-yl)-2-hydroxypropyl)-3-(cyclobutylamino)benzamide]	500 to 5000		500 to 5000		≥ 10000	≥ 10000	C* (an IC50 ratio of less than 3 fold between the IC50 in the HAP1 MTAP-intact cell line and the HAP1 MTAP-deleted cell line)	≥ 5000	
CCN(C)c1cc(C(=O)NC[C@H](O)CN2CCc3cc(OCc4ocnc4C)ccc3C2)cc(NC2CCC2)n1 [Compound 489, 2-(cyclobutylamino)-6-[ethyl(methyl)amino]-N-[(2S)-2-hydroxy-3-{6-[(4-methyl-1,3-oxazol-5-yl)methoxy]-1,2,3,4-tetrahydroisoquinolin-2-yl}propyl]pyridine-4-carboxamide]	500 to 5000	≥ 5000	50 to 500	A (a Ki ratio greater than or equal to 10 fold between the Ki in the presence of SAM and the Ki in the presence of MTA)	≥ 10000	1000 to 10000	B* (an IC50 ratio greater than or equal to 3 fold but lower than 10 fold between the IC50 in the HAP1 MTAP-intact cell line and the HAP1 MTAP-deleted cell line)		
CC(=O)N1CC[C@H](Nc2cc(C(=O)NC[C@H](O)CN3CCc4cc(OCc5ocnc5C)ccc4C3)ccn2)C[C@H]1C [Compound 644, 2-(((2R,4S)-1-acetyl-2-methylpiperidin-4-yl)amino)-N—((S)-2-hydroxy-3-(6-((4-methyloxazol-5-yl)methoxy)-3,4-dihydroisoquinolin-2(1H)-yl)propyl)isonicotinamide]	50 to 500		< 50		1000 to 10000	< 1000	A* (an IC50 ratio greater than or equal to 10 fold between the IC50 in the HAP1 MTAP-intact cell line and the HAP1 MTAP-deleted cell line)	500 to 5000	A (a Ki ratio greater than or equal to 10 fold between the Ki in the presence of SAM and the Ki in the presence of MTA)
Cc1ncoc1COc1ccc2c(c1)CCN(C[C@@H](O)CNC(=O)c1cc(NC3CCC3)nc(N3CCN(C(=O)C4CC4)CC3)c1)C2 [Compound 455, 2-(cyclobutylamino)-6-(4-cvclopropanecarbonylpiperazin-1-yl)-N-[(2S)-2-hydroxy-3-{6-[(4-methyl-1,3-oxazol-5-yl)methoxy]-1,2,3,4-tetrahydroisoquinolin-2-yl}propyl]pyridine-4-carboxamide]	50 to 500	50 to 500	50 to 500	A (a Ki ratio greater than or equal to 10 fold between the Ki in the presence of SAM and the Ki in the presence of MTA)	< 1000	< 1000	B* (an IC50 ratio greater than or equal to 3 fold but lower than 10 fold between the IC50 in the HAP1 MTAP-intact cell line and the HAP1 MTAP-deleted cell line)		
CC(=O)N1CCC(Nc2cc(C(=O)NC[C@H](O)CN3CCc4c(ccc(OCc5ccnn5C)c4C)C3)ncn2)CC1 [Compound 203]	500 to 5000		500 to 5000		≥ 10000	≥ 10000	C* (an IC50 ratio of less than 3 fold between the IC50 in the HAP1 MTAP-intact cell line and the HAP1 MTAP-deleted cell line)	≥ 5000	A (a Ki ratio greater than or equal to 10 fold between the Ki in the presence of SAM and the Ki in the presence of MTA)
